From PubChem BioAssay (NCI)
Several values for one entry are separate records, joined by “and”; a condition that tells them apart may be missing. Equal entries are not always repeated.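 Each compound was tested at five concentrations against cells in 96-well plates for 48 hours. At the GI50, growth is halved. TGI: concentration producing complete growth inhibition.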

Key:
Test in all cases: growth of human tumour cells (NCI), 48 h
K-562 leukemia = test system: K-562 leukemia
M14 melanoma = test system: M14 melanoma
MALME-3M melanoma = test system: MALME-3M melanoma
OVCAR-5 ovarian = test system: OVCAR-5 ovarian
U251 CNS = test system: U251 CNS
UACC-257 melanoma = test system: UACC-257 melanoma
OVCAR-4 ovarian = test system: OVCAR-4 ovarian
MDA-MB-435 = test system: MDA-MB-435
HS 578T breast = test system: HS 578T breast
MCF7 breast = test system: MCF7 breast

SMILES	TGI (K-562 leukemia) [µM]	TGI (M14 melanoma) [µM]	TGI (MALME-3M melanoma)	TGI (OVCAR-5 ovarian) [µM]	TGI (U251 CNS) [µM]	TGI (UACC-257 melanoma)	TGI (OVCAR-4 ovarian) [µM]	GI50 (MDA-MB-435) [µM]	TGI (MDA-MB-435) [µM]	GI50 (M14 melanoma) [µM]	GI50 (MALME-3M melanoma) [µM]	GI50 (OVCAR-5 ovarian) [µM]	GI50 (U251 CNS) [µM]	GI50 (HS 578T breast) [µM]	TGI (HS 578T breast) [µM]	GI50 (UACC-257 melanoma) [µM]	GI50 (OVCAR-4 ovarian) [µM]	GI50 (K-562 leukemia) [µM]	GI50 (MCF7 breast) [µM]	TGI (MCF7 breast) [µM]
Cc1cccc(C(C)(C)C)c1NC(=O)CC1Sc2ccccc2NC1=O (configuration not stated)	73.5	> 100	> 100 µM	> 100	> 100	> 100 µM	> 100	–	–	–	–	–	–	–	–	–	–	–	–	–
COc1ccc2c(c1OC)C(=O)c1cnccc1C2=O	> 100	> 100	> 100 µM	> 100	> 100	> 100 µM	> 100	–	–	–	–	–	–	–	–	–	–	–	–	–
COc1ccc2nc(NC(=O)C(=O)C(C#N)c3ccc(Cl)c(Cl)c3)sc2c1 (configuration not stated)	> 100	> 100	> 100 µM	> 100	> 100	> 100 µM	> 100	–	–	–	–	–	–	–	–	–	–	–	–	–
c1ccc(CNc2nc(Nc3ccccc3)nc3ccccc23)cc1	–	3.6	3.38 µM	4.19	2.91	3.78 µM	8.04	1.72	3.67	1.83	1.7	1.86	1.52	2.17	6.01	1.78	2.05	–	–	–
Cc1ccccc1-n1c(C)nc(-c2ccccc2)cc1=O	> 100	> 100	> 100 µM	> 100	> 100	> 100 µM	> 100	–	–	–	–	–	–	–	–	–	–	–	–	–
CN(/N=N/c1nc(OCc2ccccc2)c2[nH]cnc2n1)C(=O)Oc1ccc([N+](=O)[O-])cc1	> 50	18.4	–	> 50	15.3	> 50 µM	> 50	12.4	39.8	8.87	–	11.5	7.51	8.61	29.6	39	22.8	11.9	12.4	> 50
CN1CC(=O)N(C)c2nc[nH]c2C1=O	> 100	> 100	> 100 µM	> 100	> 100	–	> 100	–	–	–	–	–	–	–	–	–	–	–	–	–
Nn1c(N=Nc2c(O)[nH]c3c(Cl)cc(Cl)cc23)n[nH]c1=S	> 100	> 100	> 100 µM	> 100	> 100	> 100 µM	> 100	–	–	–	–	–	–	–	–	–	–	–	–	–
COC1=C2CC(C)CC(OC)C(O)C(C)/C=C(\C)C(OC(N)=O)C(OC)/C=C\C=C(/C)C(=O)NC(=C(/C=N/N3CCCCC3)C1=O)C2=O (configuration not stated)	21.6	37.4	28.7 µM	34.5	20.8	27.7 µM	19.3	–	–	–	–	–	–	–	–	–	–	–	–	–
O=C(O)CCSC(=O)Nc1ccc(N=Nc2ccccc2)cc1	> 100	> 100	> 100 µM	> 100	> 100	> 100 µM	> 100	–	–	–	–	–	–	–	–	–	–	–	–	–
O=C(NS(=O)(=O)c1ccccc1)C(Cc1ccccc1)C(Cc1ccccc1)C(=O)NS(=O)(=O)c1ccccc1 (configuration not stated)	> 100	> 100	> 100 µM	> 100	> 100	> 100 µM	> 100	–	–	–	–	–	–	–	–	–	–	–	–	–
Nc1n[nH]c(CCc2nc(N)n[nH]2)n1	> 100	> 100	> 100 µM	> 100	> 100	> 100 µM	> 100	–	–	–	–	–	–	–	–	–	–	–	–	–
ClCc1ccc(Cn2cnc3c(Cl)nc(Cl)nc32)cc1	66.5	24.1	–	34.5	3.88	33.5 µM	18.8	12.6	25.1	10.8	–	18.2	2.05	2.13	5.77	16.3	4.91	23.3	–	–
CCC(Oc1ccc(OC)c2ccccc(=O)c12)C(=O)O (configuration not stated)	> 100	> 100	> 100 µM	> 100	> 100	> 100 µM	> 100	–	–	–	–	–	–	–	–	–	–	–	–	–
O=C1c2nc3n(c2C(=O)c2c1nc1n2CCC1)CCC3	> 57.8	4.65	3.54 µM and 2.17 µM	30.7	34	5.6 µM and 5.72 µM	14.9	–	3.48	4.88	2	–	–	–	–	2.47	5.45	–	–	–
COC(=O)C1=C(c2ccc3c(c2)OCO3)OC(c2cc(OC)c(OC)c(OC)c2)C1 (configuration not stated)	> 100	84.1	> 100 µM	> 100	> 100	> 100 µM	> 100	–	–	–	–	–	–	–	–	–	–	–	–	–
O=C(O)c1ccccc1NC(=O)C1CCCCC1	> 100	> 100	> 100 µM	> 100	> 100	> 100 µM	> 100	–	–	–	–	–	–	–	–	–	–	–	–	–
O=C(CC1C(=O)Nc2ccccc2S1=O)Nc1ccc(Cl)cc1 (configuration not stated)	> 100	> 100	> 100 µM	> 100	> 100	> 100 µM	> 100	–	–	–	–	–	–	–	–	–	–	–	–	–
CC1=C(C(=O)Nc2ccc([N+](=O)[O-])cc2)C(c2ccccc2F)C(C(=O)Nc2ccc([N+](=O)[O-])cc2)=C(C)N1	> 100	49.4	42.6 µM	> 100	76.6	48.7 µM	89.8	–	–	–	–	–	–	–	–	–	–	–	–	–
CC1(C)OC(=O)C=C([O-])O1.CC1(C)OC(=O)C=C([O-])O1.CC[O-].CC[O-].[Ti+4]	> 100	> 100	> 100 µM	> 100	> 100	> 100 µM	> 100	–	–	> 100	> 100	> 100	> 100	–	–	> 100	> 100	> 100	–	–
CN(C)C(=S)/N=c1\ss/c(=N\S(=O)(=O)c2ccccc2)n1N(C)C	> 100	> 100	> 100 µM	–	> 100	> 100 µM	> 100	–	–	–	–	–	–	–	–	–	–	–	–	–
CCc1nc(N)nc(N)c1-c1ccc(Cl)c(N=CN(C)C)c1	> 100	> 100	–	> 100	> 100	> 100 µM	> 100	–	> 100	–	–	–	–	–	> 100	–	–	–	–	> 100
CCCCCCC(/C=N/O)C(C)(O)CCC (configuration not stated)	> 100	> 100	> 100 µM	> 100	> 100	> 100 µM	> 100	–	–	–	–	–	–	–	–	–	–	–	–	–
